Several values for one entry are separate records, joined by “and”; a condition that tells them apart may be missing. Identical values can stand only once.
Tests used:
[1] = target: BTK (Homo sapiens, UniProt Q06187); parameters: BTK kinase domain was expressed and purified as previously reported; made in house; method as in Reddi et al., J. Am. Chem. Soc. 2021, 143 (13), 4979–4992; details: ref Reddi et al., J. Am. Chem. Soc. 2021, 143 (13), 4979–4992; cited from earlier work
[2] = target: T1, BTK-1h (Homo sapiens, UniProt Q06187); assay: High-throughput screening with 1h-labeled BTK; assay type: binding
T1 construct: The BTK kinase domain was diluted to 2 μM in the buffer, and 2 μM 1h was added; made in house
T1 sequence (Q06187 402-655): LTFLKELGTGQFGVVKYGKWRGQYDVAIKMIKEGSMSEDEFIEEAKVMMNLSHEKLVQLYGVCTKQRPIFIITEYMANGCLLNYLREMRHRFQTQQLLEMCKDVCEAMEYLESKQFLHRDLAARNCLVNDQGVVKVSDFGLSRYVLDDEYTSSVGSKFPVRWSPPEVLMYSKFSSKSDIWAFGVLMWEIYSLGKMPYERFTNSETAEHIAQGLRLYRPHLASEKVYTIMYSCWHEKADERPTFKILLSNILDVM
Description: The collection was composed of BTK binding compounds obtained in our previous luminescence screen[37] (Data set S2). […] The resulting BTK-1h (50 μL) was added to the inhibitors.

[3] = Dataset S2A, 200 μM compound, BTK-1h, 32 °C, 10 min

Chain of BTK (Q06187 402-655 limits assumed): as the sequence (Q06187 402-655) above

Compound | BTK Inhibition reported in luminescence assay* [1] | FI (650)/FI (620) [2, 3] | FI (BTK-1h)/FI (BTK-1h+Inhibitor) at 620 nm [2, 3] | FI (650)/FI (620) ([2]; Dataset S2C, BTK-1h with inhibitor)
CCCCCCCCCCCCc1ccc(S(=O)(=O)Nc2nncs2)cc1 [PCM-0095111-002] | 53.8 | 1.107 | 1.042 | –
COc1cc(C[C@H](C)[C@H](C)Cc2ccc3c(c2)OCO3)ccc1O [PCM-0216424-001] | 68.7 | 0.9224 | 1.025 | –
C=CC(=O)Nc1ccc(CN2C(=O)N(c3cc(OC)cc(OC)c3)Cc3cnc(Nc4ccc(N5CCN(C)CC5)cc4)nc32)cc1 [PCM-0215559-001] | 88.3 | 1.072 | 1.041 | –
C=CC(=O)Nc1cccc(C)c1Nc1ncc2cc(-c3c(Cl)c(OC)cc(OC)c3Cl)ccc2n1 [PCM-0215508-001] | 100.4 | 1.043 | 1.041 | –
CC(C)(O)CC(=O)NCCn1ccc2ncnc(Nc3ccc(Oc4cccc(C(F)(F)F)c4)c(Cl)c3)c21 [PCM-0095364-002] | 73.8 | 0.8854 | 1.06 | –
COc1cccc(-n2c(=O)[nH]c3cc(Cl)n(-c4ccc(-c5cccc(OC)c5O)cc4)c3c2=O)c1 [PCM-0215555-001] | 99.3 | 1.019 | 1.0396 | –
O=C(O)c1ccc(C=C2SC(=S)N(c3cccc(C(F)(F)F)c3)C2=O)cc1 [PCM-0095759-002] | 54.1 | 1.083 | 1.262 | –
COc1ccc2c(O[C@@H]3C[C@H]4C(=O)N[C@]5(C(=O)NS(=O)(=O)C6CC6)C[C@H]5/C=C\CCCCN(C)C(=O)[C@@H]4C3)cc(-c3nc(C(C)C)cs3)nc2c1C [PCM-0215097-001] | 55.6 | 0.9923 | 1.053 | –
Cc1nc(Nc2n[nH]c3c2CN(C(=O)N[C@H](CN(C)C)c2ccccc2)C3(C)C)c2sccc2n1 [PCM-0095819-002] | 72.4 | 0.9908 | 1.0756 | –
COc1c(O)c(C)cc2c1C(=O)c1c(O)cccc1C2=O [PCM-0216457-001] | 64.1 | 1.085 | 1.022 | –
O=C(Nc1c[nH]nc1-c1nc2ccc(CN3CCOCC3)cc2[nH]1)NC1CC1 [PCM-0094942-002, AT9283] | 93.8 | 2.2858 | 1.798 | 1.798
CC(=O)O[C@@H]1CC[C@@]2(C)[C@@H](CC[C@]3(C)[C@@H]2C(=O)C=C2[C@@H]4[C@@H](C)[C@H](C)CC[C@]4(C)CC[C@]23C)[C@@]1(C)C(=O)O [PCM-0216599-001] | 88 | 0.9109 | 1.037 | –
CN1CCN(Cc2ccc(NC(=O)Nc3ccc(Oc4cc(NC(=O)C5CC5)ncn4)cc3)cc2C(F)(F)F)CC1 [PCM-0215388-001] | 79.5 | 1.014 | 1.145 | –
O=C1NC(=O)C(c2cnc3ccccn23)=C1c1cn2c3c(cc(F)cc13)CN(C(=O)N1CCCCC1)CC2 [PCM-0215438-001] | 80 | 0.9847 | 1.0465 | –
C[n+]1cc2c3c(ccc2c2ccc4cc5c(cc4c21)OCO5)OCO3.[Cl-] [PCM-0065605-002] | 75.7 | 1.399 | 1.003 | –
CC(O)C(=O)O.CN1CCN(c2ccc3nc(-c4c(N)c5c(F)cccc5[nH]c4=O)[nH]c3c2)CC1.O [PCM-0094915-004] | 53.8 | 1.048 and 1.073 | 1.015 and 1.028 | –

Compound | BTK Inhibition reported in luminescence assay* [1] | FI (650)/FI (620) [2, 3] | FI (BTK-1h)/FI (BTK-1h+Inhibitor) at 620 nm [2, 3] | FI (650)/FI (620) ([2]; Dataset S2C, BTK-1h with inhibitor)
CN(c1ncccc1CNc1nc(Nc2ccc3c(c2)CC(=O)N3)ncc1C(F)(F)F)S(C)(=O)=O.O=S(=O)(O)c1ccccc1 [PCM-0095340-005] | 84.8 | 1.135 | 1.028 | –
O=C(O)CSc1cc(NS(=O)(=O)c2ccc(Br)cc2)c2ccccc2c1O [PCM-0215378-001] | 51.7 | 1.912 | 0.9002 | –
COc1ccc2cc3[n+](cc2c1O)CCc1cc2c(cc1-3)OCO2.[Cl-] [PCM-0216489-001] | 97.3 | 1.203 | 0.9862 | –
Cl.O=C1Cc2cc(CCN3CCN(c4nsc5ccccc45)CC3)c(Cl)cc2N1 [PCM-0065598-003] | 52.1 | 1.0625 | 1.055 | –
CN[C@H]1C(=O)N[C@@H]2Cc3ccc(cc3)Oc3cc4cc(c3O[C@@H]3O[C@H](C(=O)O)[C@@H](O)[C@H](O)[C@H]3NC(=O)CCCCCCCCC(C)C)Oc3ccc(cc3Cl)[C@@H](O)[C@@H]3NC(=O)[C@H](NC(=O)[C@@H]4NC(=O)[C@@H](NC2=O)c2cc(cc(O)c2Cl)Oc2cc1ccc2O)c1ccc(O)c(c1)-c1c(O[C@H]2O[C@H](CO)[C@@H](O)[C@H](O)[C@@H]2O)cc(O)cc1[C@@H](C(=O)NCCCN(C)C)NC3=O [PCM-0215113-001] | 73.2 | 0.7724 | 1.097 | –
O=C(/C=C/c1ccc(O)c(O)c1)c1ccc(O)cc1O [PCM-0095622-002] | 55.2 | 1.0597 | 1.03 | –
C=CC(=O)Nc1cccc(Nc2nc(Nc3ccc(NC4CN(CCF)C4)cc3OC)ncc2C(F)(F)F)c1 [PCM-0215208-001] | 91 | 1.1509 | 1.028 | –
Cc1cc(C)nc(NS(=O)(=O)c2ccc(NC(=S)NC(=O)COc3ccc(Br)cc3Cl)cc2)n1 [PCM-0095801-002] | 59.5 | 0.8921 | 1.024 | –
CC1=C(C(=O)OC(C)C)C(c2cccc([N+](=O)[O-])c2)C(C(=O)OC2CN(C(c3ccccc3)c3ccccc3)C2)=C(N)N1 (stereo not shown) [PCM-0095544-002] | 70 | 1.1262 | 1.0184 | –
CC#CC(=O)Nc1ccc2ncnc(Nc3cccc(Br)c3)c2c1 [PCM-0215449-001] | 102.8 | 1.009 | 1.056 | –
Cl[Te]1(Cl)(Cl)OCCO1.N [PCM-0215721-001] | 98.6 | 1.1548 | 1.038 | –
CC1=C(O)C(=O)C=C2C1=CC=C1[C@@]2(C)CC[C@@]2(C)[C@@H]3C[C@](C)(C(=O)O)CC[C@]3(C)CC[C@]12C [PCM-0214611-001] | 67.7 | 0.9422 | 1.014 | –
COc1cc(O)c2c(=O)cc(-c3ccc(O)c(O)c3)oc2c1 [PCM-0216461-001] | 61 | 2.385 | 1.063 | –
CCc1cccc(CC)c1NC(=O)N1Cc2[nH]nc(NC(=O)c3ccc(N4CCN(C)CC4)cc3)c2C1 [PCM-0095127-002] | 65.5 | 1.117 | 1.096 | –
CNCc1ccc(C)c(NC(=O)c2ccc(Nc3nc(-c4ccccc4)c4ccccc4n3)cc2)c1 [PCM-0095748-002] | 79.5 | 1.264 | 1.088 | –
CC(=O)O/N=C1/C(c2c(O)[nH]c3cc(Br)ccc23)=Nc2ccccc21 [PCM-0215536-001] | 60.7 | 1.013 | 1.019 | –

Source: article PMC8662641, “Site-Specific Labeling of Endogenous Proteins Using CoLDR Chemistry” (Journal of the American Chemical Society, 2021)
